Data from US8063231B2, “Methods of treating alpha adrenergic mediated conditions” (Allergan, Inc., priority 2008, dated 2011).
Several values for one entry are separate records, joined by “and”; a condition that tells them apart may be missing. Equal values may be shown once.

How the values were obtained:
Chung model rats = experiment: Tactile allodynia reversal in Chung model of chronic pain (spinal nerve ligation, von Frey hairs); assay type: in vivo, rat
Protocol: Various concentrations of N-(2,3-dichlorobenzyl)-4,5-dihydro-1H-imidazol-2-amine were administered orally to Chung model rats. A model in accordance with Kim and Chung 1992, Pain […], pp 355-363 (Chung model), for chronic pain (in particular peripheral neuropathy) involves the surgical ligation of the L5 (and optionally the L6) spinal nerves on one side in experimental animals. Rats recovering from the surgery gain weight and display a level of general activity similar to that of normal rats. However, these rats develop abnormalities of the foot, wherein the hindpaw is moderately everted and the toes are held together. More importantly, the hindpaw on the side affected by the surgery appears to become sensitive to pain from low-threshold mechanical stimuli, such as that producing a faint sensation of touch in a human, within about 1 week following surgery. This sensitivity to normally non-painful touch is called “tactile allodynia” and lasts for at least two months. The response includes lifting the affected hindpaw to escape from the stimulus, licking the paw and holding it in the air for many seconds. None of these responses is normally seen in the control group.
Rats are anesthetized before surgery. The surgical site is shaved and prepared either with betadine or Novacaine. Incision is made from the thoracic vertebra XIII down toward the sacrum. Muscle tissue is separated from the spinal vertebra (left side) at the L4-S2 levels. The L6 vertebra is located and the transverse process is carefully removed with a small rongeur to expose the L4-L6 spinal nerves. The L5 and L6 spinal nerves are isolated and tightly ligated with 6-0 silk thread. The same procedure is done on the right side as a control, except no ligation of the spinal nerves is performed.
A complete hemostasis is confirmed, then the wounds are sutured. A small amount of antibiotic ointment is applied to the incised area, and the rat is transferred to the recovery plastic cage under a regulated heat-temperature lamp. On the day of the experiment, at least seven days after the surgery, typically six rats per test group are administered the test drugs by intraperitoneal (i.p.) injection or oral gavage. […], the compounds are formulated in d H2O and given in a volume of 1 ml/kg body weight using an 18-gauge, 3 inch gavage needle that is slowly inserted through the esophagus into the stomach.
Tactile allodynia is measured prior to and 30 minutes after drug administration using von Frey hairs that are a series of fine hairs with incremental differences in stiffness. Rats are placed in a plastic cage with a wire mesh bottom and allowed to acclimate for approximately 30 minutes. The von Frey hairs are applied perpendicularly through the mesh to the mid-plantar region of the rats' hindpaw with sufficient force to cause slight buckling and held for 6-8 seconds. The applied force has been calculated to range from 0.41 to 15.1 grams. If the paw is sharply withdrawn, it is considered a positive response. A normal animal will not respond to stimuli in this range, but a surgically ligated paw will be withdrawn in response to a 1-2 gram hair. The 50% paw withdrawal threshold is determined using the method of Dixon, W. J., Ann. Rev. Pharmacol. Toxicol. 20:441-462 (1980) hereby incorporated by reference. The post-drug threshold is compared to the pre-drug threshold and the percent reversal of tactile sensitivity is calculated based on a normal threshold of 15.1 grams.

wild type rats = experiment: Sedative effects (total activity counts) after intraperitoneal injection; assay type: in vivo, rat; conditions: for Sedative Effect (IP): 30 minutes post injection
Protocol: FIG. 2 depicts sedative effects (total activity counts) 30 minutes post intraperitoneal injection of 1 mg/kg and 10 mg/kg doses of N-(2,3-dichlorobenzyl)-4,5-dihydro-1H-imidazol-2-amine.
Data was acquired from wild type rats administered N-(2,3-dichlorobenzyl)-4,5-dihydro-1H-imidazol-2-amine intraperitoneally (IP). Rats were split into groups of six and administered 1 mg/kg or 10 mg/kg doses of N-(2,3-dichlorobenzyl)-4,5-dihydro-1H-imidazol-2-amine to assess the sedative effects of the administration of the agent.

Clc1cccc(CNC2=NCCN2)c1Cl [N-(2,3-dichlorobenzyl)-4,5-dihydro-1H-imidazol-2-amine]
Peak Allodynia Reversal (Oral, 30 min.) (Chung model rats; 30 μg/kg oral): 28% and 28% +/− 9.5% | Peak Allodynia Reversal (Oral, 30 min.) (Chung model rats; 100 μg/kg oral): 68% +/− 12.7% | Peak Allodynia Reversal (Oral, 30 min.) (Chung model rats; 300 μg/kg oral): 84% +/− 7.5% | Time at which analgesic effect was seen (peak percent allodynia reversal) (Chung model rats; single oral dose, FIG. 1): about 30 minutes | Time of decrease of allodynia reversal to baseline (Chung model rats; single oral dose, FIG. 1): about 120 minutes | Sedative Effect (IP) (wild type rats; 1 mg/kg IP): No significant effect | Sedative effect (in words) (wild type rats; 10 mg/kg IP): significant sedative effect | Sedative Effect (IP) (wild type rats; 10 mg/kg IP): 23% sedating
